According to PubChem BioAssay AID248 (DTP/NCI, 2004):
Where “and” joins values, the source holds several entries; their conditions need not be identical. Equal values may be shown once. Toxic doses and inconclusive results are not listed. Rule as the data show it: active = T/C of 150% or more; inactive = T/C below 125%.

Tested on: L1210 leukemia ip in BDF1 mice, survival T/C
Assay: NCI In Vivo Anticancer Drug Screen. Data for tumor model L1210 Leukemia (intraperitoneal) in B6D2F1 (BDF1) mice
Conditions: endpoint: mean survival time, higher = longer survival
Method in brief: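 Mice bearing the transplanted tumor received compound or vehicle. Survival of the treated group was divided by that of the vehicle-treated control group to give the ratio.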

[1] = dose: 100.0 mg/kg/injection, schedule: Q04DX003 (ip), vehicle: saline with Tween-80
[2] = dose: 200.0 mg/kg/injection, schedule: Q04DX003 (ip), vehicle: saline with Tween-80
[3] = dose: 400.0 mg/kg/injection, schedule: Q04DX003 (ip), vehicle: saline with Tween-80
[4] = dose: 100.0 mg/kg/injection, schedule: Q01DX001 (ip), vehicle: carboxymethylcellulose (CMC)
[5] = dose: 100.0 mg/kg/injection, schedule: Q04DX003 (ip), vehicle: Klucel (hydroxypropylcellulose) (HPC)
[6] = dose: 200.0 mg/kg/injection, schedule: Q04DX003 (ip), vehicle: Klucel (hydroxypropylcellulose) (HPC)
[7] = dose: 400.0 mg/kg/injection, schedule: Q04DX003 (ip), vehicle: Klucel (hydroxypropylcellulose) (HPC)
[8] = dose: 50.0 mg/kg/injection, schedule: Q01DX001 (ip), vehicle: saline
[9] = dose: 100.0 mg/kg/injection, schedule: Q01DX001 (ip), vehicle: saline
[10] = dose: 200.0 mg/kg/injection, schedule: Q01DX001 (ip), vehicle: saline
[11] = dose: 100.0 mg/kg/injection, schedule: Q01DX009 (ip), vehicle: Klucel (hydroxypropylcellulose) (HPC)

Measured: T/C

CC(=O)[O][Hg][c]1sc2ccccc2c1C
inactive: dose: 0.5 mg/kg/injection, schedule: Q01DX015 (ip), vehicle: other 106 % of control | dose: 1.0 mg/kg/injection, schedule: Q01DX015 (ip), vehicle: other 98 % of control | dose: 1.5 mg/kg/injection, schedule: Q04DX003 (ip), vehicle: saline 103 % of control | dose: 2.0 mg/kg/injection, schedule: Q01DX015 (ip), vehicle: other 98 % of control | dose: 2.12 mg/kg/injection, schedule: Q01DX009 (ip), vehicle: saline with Tween-80 98 % of control | dose: 3.0 mg/kg/injection, schedule: Q01DX001 (ip), vehicle: acetone 101 % of control | dose: 3.0 mg/kg/injection, schedule: Q04DX003 (ip), vehicle: saline 95 % of control | dose: 4.0 mg/kg/injection, schedule: Q01DX015 (ip), vehicle: other 96 % of control | dose: 4.25 mg/kg/injection, schedule: Q01DX009 (ip), vehicle: saline with Tween-80 95 % of control | dose: 6.0 mg/kg/injection, schedule: Q01DX001 (ip), vehicle: acetone 95 % of control | dose: 6.0 mg/kg/injection, schedule: Q04DX003 (ip), vehicle: saline 98 % of control | dose: 8.5 mg/kg/injection, schedule: Q01DX009 (ip), vehicle: saline with Tween-80 98 % of control | dose: 8.5 mg/kg/injection, schedule: Q04DX003 (ip), vehicle: acetone 98 % of control | dose: 12.0 mg/kg/injection, schedule: Q01DX001 (ip), vehicle: acetone 86 % of control | dose: 12.0 mg/kg/injection, schedule: Q01DX009 (ip), vehicle: saline with Tween-80 95 % of control and 88 % of control | dose: 19.0 mg/kg/injection, schedule: Q01DX009 (ip), vehicle: saline with Tween-80 92 % of control | dose: 28.0 mg/kg/injection, schedule: Q01DX009 (ip), vehicle: saline with Tween-80 106 % of control

O=[N+]([O-])c1ccc(N=C(Cl)c2ccccc2)cc1
inactive: [1] 98 % of control | [2] 98 % of control | [3] 104 % of control

NC(=S)c1cccc(S(N)(=O)=O)c1
inactive: dose: 100.0 mg/kg/injection, schedule: Q01DX001 (ip), vehicle: Klucel (hydroxypropylcellulose) (HPC) 100 % of control | dose: 200.0 mg/kg/injection, schedule: Q01DX001 (ip), vehicle: Klucel (hydroxypropylcellulose) (HPC) 103 % of control | dose: 400.0 mg/kg/injection, schedule: Q01DX001 (ip), vehicle: Klucel (hydroxypropylcellulose) (HPC) 103 % of control

CN1CCc2cc3c(cc2C(=O)Cc2ccc4c(c2C1)OCO4)OCO3
inactive: dose: 25.0 mg/kg/injection, schedule: Q04DX003 (ip), vehicle: saline with Tween-80 103 % of control | dose: 50.0 mg/kg/injection, schedule: Q04DX003 (ip), vehicle: saline with Tween-80 97 % of control | [4] 100 % of control | [1] 102 % of control

CCc1ccc(OS(=O)(=O)c2ccccc2[N+](=O)[O-])cc1
inactive: dose: 100.0 mg/kg/injection, schedule: Q01DX009 (ip), vehicle: saline with Tween-80 96 % of control | [5] 100 % of control | dose: 200.0 mg/kg/injection, schedule: Q01DX009 (ip), vehicle: saline with Tween-80 114 % of control | [6] 100 % of control | dose: 400.0 mg/kg/injection, schedule: Q01DX009 (ip), vehicle: saline with Tween-80 103 % of control | [7] 95 % of control

C=CCCCCCCCCO
inactive: [8] 98 % of control | [9] 95 % of control | [10] 95 % of control

CCCCCCCc1ccc(C(C)=O)cc1
inactive: [1] 100 % of control | dose: 132.0 mg/kg/injection, schedule: Q04DX003 (ip), vehicle: saline with Tween-80 97 % of control | [2] 101 % of control | dose: 300.0 mg/kg/injection, schedule: Q04DX003 (ip), vehicle: saline with Tween-80 93 % of control | [3] 108 % of control

CN(C)c1ccc(/C=N/Nc2nnc(N/N=C/c3ccc(N(C)C)cc3Cl)c3ccccc23)c(Cl)c1
inactive: [8] 102 % of control | [9] 100 % of control | [10] 100 % of control | dose: 400.0 mg/kg/injection, schedule: Q01DX001 (ip), vehicle: saline 92 % of control

O=C(O)C1C2C=CC(C2)C1(C(=O)O)c1ccccc1 (stereo not drawn)
inactive: [4] 95 % of control | dose: 100.0 mg/kg/injection, schedule: Q04DX003 (ip), vehicle: carboxymethylcellulose (CMC) 98 % of control | dose: 200.0 mg/kg/injection, schedule: Q01DX001 (ip), vehicle: carboxymethylcellulose (CMC) 95 % of control | dose: 200.0 mg/kg/injection, schedule: Q04DX003 (ip), vehicle: carboxymethylcellulose (CMC) 92 % of control

CCCNS(=O)(=O)c1ccc(Cl)c([N+](=O)[O-])c1
inactive: dose: 12.5 mg/kg/injection, schedule: Q04DX003 (ip), vehicle: Klucel (hydroxypropylcellulose) (HPC) 100 % of control | dose: 25.0 mg/kg/injection, schedule: Q04DX003 (ip), vehicle: Klucel (hydroxypropylcellulose) (HPC) 97 % of control | dose: 50.0 mg/kg/injection, schedule: Q04DX003 (ip), vehicle: Klucel (hydroxypropylcellulose) (HPC) 100 % of control | [5] 98 % of control | [6] 103 % of control

Cc1cccc(Nc2n[nH]c(=S)s2)c1
inactive: [11] 93 % of control | dose: 200.0 mg/kg/injection, schedule: Q01DX009 (ip), vehicle: Klucel (hydroxypropylcellulose) (HPC) 98 % of control | dose: 400.0 mg/kg/injection, schedule: Q01DX009 (ip), vehicle: Klucel (hydroxypropylcellulose) (HPC) 87 % of control

OCc1cc2ccccc2c2ccccc12
inactive: dose: 222.0 mg/kg/injection, schedule: Q01DX Z (ip), vehicle: carboxymethylcellulose (CMC) 96 % of control | dose: 330.0 mg/kg/injection, schedule: Q01DX Z (ip), vehicle: carboxymethylcellulose (CMC) 90 % of control | dose: 500.0 mg/kg/injection, schedule: Q01DX Z (ip), vehicle: carboxymethylcellulose (CMC) 93 % of control | dose: 750.0 mg/kg/injection, schedule: Q01DX Z (ip), vehicle: carboxymethylcellulose (CMC) 88 % of control

C[S+](C)CC(=O)c1ccc(Br)cc1
inactive: [5] 97 % of control | [6] 95 % of control | [7] 101 % of control

CCOC(=O)Nc1cc(NC(C)CCCN(CC)CC)c2ncc(-c3ccc(Cl)c(Cl)c3)nc2n1 (stereo not drawn) (tested in a mixture with another compound)
inactive: dose: 6.25 mg/kg/injection, schedule: Q01DX001 (ip), vehicle: saline 99 % of control | dose: 6.25 mg/kg/injection, schedule: Q01DX009 (ip), vehicle: saline 91 % of control | dose: 12.5 mg/kg/injection, schedule: Q01DX001 (ip), vehicle: saline 101 % of control | dose: 12.5 mg/kg/injection, schedule: Q01DX009 (ip), vehicle: saline 95 % of control | dose: 25.0 mg/kg/injection, schedule: Q01DX001 (ip), vehicle: saline 89 % of control | dose: 25.0 mg/kg/injection, schedule: Q01DX009 (ip), vehicle: saline 106 % of control | [9] 103 % of control

CN(C)c1ccnc(N(C)C)n1
inactive: dose: 16.0 mg/kg/injection, schedule: Q01DX Z (ip), vehicle: methylcellulose (MC) 96 % of control | dose: 31.0 mg/kg/injection, schedule: Q01DX Z (ip), vehicle: methylcellulose (MC) 98 % of control

O=[N+]([O-])c1cc(/C=N\Nc2ccccn2)ccc1Cl
inactive: [5] 112 % of control | [6] 101 % of control | [7] 101 % of control

Fc1ccc2[nH]c3c(c2c1)C[P+](Cc1cccc2ccccc12)(c1ccccc1)CC3 (stereo not drawn)
inactive: dose: 100.0 mg/kg/injection, schedule: Q04DX003 (ip), vehicle: saline 98 % of control | dose: 200.0 mg/kg/injection, schedule: Q04DX003 (ip), vehicle: saline 88 % of control

CS(=O)(=O)OCCN(CCOS(C)(=O)=O)c1ccc(C=Nc2ccc(C(=O)O)cc2)c(Cl)c1
inactive: [5] 120 % of control | [6] 105 % of control | [7] 86 % of control

COc1ccc(-c2c(-c3ccccc3)oc3cc(O)ccc23)cc1
inactive: dose: 100.0 mg/kg/injection, schedule: Q04DX003 (ip), vehicle: gum acacia 90 % of control | dose: 200.0 mg/kg/injection, schedule: Q04DX003 (ip), vehicle: gum acacia 90 % of control | dose: 400.0 mg/kg/injection, schedule: Q04DX003 (ip), vehicle: gum acacia 93 % of control

NC(=O)c1ccccc1OC(=O)Nc1ccccc1
inactive: dose: 50.0 mg/kg/injection, schedule: Q01DX009 (ip), vehicle: Klucel (hydroxypropylcellulose) (HPC) 103 % of control | [11] 101 % of control | dose: 100.0 mg/kg/injection, schedule: Q04DX002 (ip), vehicle: Klucel (hydroxypropylcellulose) (HPC) 89 % of control | dose: 200.0 mg/kg/injection, schedule: Q04DX002 (ip), vehicle: Klucel (hydroxypropylcellulose) (HPC) 99 % of control
